The target in this assay is T1, PI3Kα (Homo sapiens, UniProt P42336).
T1 construct: gene PIK3CA
In words: Kinase-Glo Plus luminescence kinase assay, […] ATP. The assay is classed as biochemical.

Molecules are shown by their SMILES.

T1 sequence (P42336 whole entry): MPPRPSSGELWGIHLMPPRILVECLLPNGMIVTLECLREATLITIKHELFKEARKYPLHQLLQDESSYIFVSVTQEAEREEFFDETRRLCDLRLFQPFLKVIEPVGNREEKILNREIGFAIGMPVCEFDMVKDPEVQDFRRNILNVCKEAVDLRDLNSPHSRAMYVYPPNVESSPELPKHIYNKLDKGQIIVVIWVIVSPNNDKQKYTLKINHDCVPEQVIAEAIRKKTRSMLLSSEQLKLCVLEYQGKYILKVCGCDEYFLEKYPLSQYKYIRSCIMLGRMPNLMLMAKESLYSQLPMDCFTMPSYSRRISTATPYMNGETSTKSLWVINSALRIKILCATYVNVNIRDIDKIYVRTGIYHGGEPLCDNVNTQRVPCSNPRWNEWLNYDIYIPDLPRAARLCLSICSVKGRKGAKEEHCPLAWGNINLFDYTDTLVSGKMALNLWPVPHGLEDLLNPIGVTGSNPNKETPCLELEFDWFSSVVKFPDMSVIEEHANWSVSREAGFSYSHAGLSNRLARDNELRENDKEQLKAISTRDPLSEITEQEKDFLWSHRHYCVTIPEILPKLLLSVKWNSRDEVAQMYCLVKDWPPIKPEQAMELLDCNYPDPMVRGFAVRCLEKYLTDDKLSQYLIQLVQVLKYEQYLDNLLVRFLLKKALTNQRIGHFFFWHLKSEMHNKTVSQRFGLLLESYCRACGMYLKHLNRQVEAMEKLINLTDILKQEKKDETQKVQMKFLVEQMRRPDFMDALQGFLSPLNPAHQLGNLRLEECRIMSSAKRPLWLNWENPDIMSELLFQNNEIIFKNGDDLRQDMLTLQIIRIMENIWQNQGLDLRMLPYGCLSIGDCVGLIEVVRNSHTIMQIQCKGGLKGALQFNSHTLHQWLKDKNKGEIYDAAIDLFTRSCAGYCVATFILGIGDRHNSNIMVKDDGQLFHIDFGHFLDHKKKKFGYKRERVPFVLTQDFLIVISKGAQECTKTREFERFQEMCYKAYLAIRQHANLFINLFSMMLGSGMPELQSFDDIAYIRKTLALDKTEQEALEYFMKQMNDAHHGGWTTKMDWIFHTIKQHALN

On to `COc1cccc2c1nc(C(F)(F)F)n2-c1nc(N2CCOCC2)nc(N(C)C2CCN(S(C)(=O)=O)CC2)n1` [compound 86, 4-(4-Methoxy-2-(trifluoromethyl)-1H-benzo[d]imidazol-1-yl)-N-methyl-N-(1-(methylsulfonyl)piperidin-4-yl)-6-morpholino-1,3,5-triazin-2-amine], for which the IC50 amounted to 22.8 ± 0.4 nM. For the compound `CCOc1cccc2c1nc(C(F)(F)F)n2-c1nc(N2CCOCC2)nc(N(C)C2CCN(S(C)(=O)=O)CC2)n1` [compound 87, 4-(4-Ethoxy-2-(trifluoromethyl)-1H-benzo[d]imidazol-1-yl)-N-methyl-N-(1-(methylsulfonyl)piperidin-4-yl)-6-morpholino-1,3,5-triazin-2-amine], the IC50 was determined as 33.6 ± 2.7 nM.

What is called IC50 is the midpoint of a concentration-inhibition curve.

Values taken from PMC8777764, “Design, Synthesis, Biological Evaluation, and Molecular Modeling of 2-Difluoromethylbenzimidazole Derivatives as Potential PI3Kα Inhibitors” (Molecules, 2022).
